Results published in patent publication US9593127B2, “Heterocyclylalkyne derivatives and their use as modulators of mGluR5 receptors” (RECORDATI IRELAND LTD., priority 2014, dated 2017).

Key:
[1] = target: T1, human mGlu5 receptor (CHO T-REx h-mGluR5 cells) (Homo sapiens (Human), UniProt P41594); experiment: Radioligand binding assay at cloned mGluR5 ([3H]MPEP displacement); conditions: 4 nM [3H]MPEP, read-out: h.c. mglu R5 IC50
Source text: (§1) Cell lines stably transfected were generated using inducible expression vectors encoding human mGlu5 receptor using the Tetracycline-Regulated Expression system (T-REx™ system, Invitrogen, Life Technologies). Human mGluR5 open reading frame (ORF), comprehensive of the stop codon, were cloned into the pcDNA4/TO/myc-His™ A vector, carrying the TetO2 sequences. The insertion site was HindIII-PstI for mGluR5 receptors. The obtained constructs were then transfected into the T-REx CHO™ cell line using the FuGENE protocol (Roche); the CHO T-REx™ cell line stably expresses the Tet repressor (from the pcDNA6/TR plasmid) under the selection of blasticidin, 10 μg/ml. Stable clones were obtained selecting with zeocine 1 mg/ml and maintaining in ULTRA CHO medium (LONZA) supplemented with dialyzed FBS, zeocin, blasticidine, at 37° C., in an atmosphere of 5% CO2. The expression of h-mGluR5 receptors was de-repressed with 1 μg/ml tetracycline for 18 h before binding experimentation, while the expression of h-mGluR5 receptors was de-repressed respectively with 3 ng/ml and 10 ng/ml tetracycline for 18 h before calcium fluorescence experimentation.
Affinity at transmembrane glutamate metabotropic mGluR5 receptor subtypes was evaluated according to the methods of Anderson (Anderson et al., J Pharmacol. Exp. Ther., (2002), Vol. 303(3), pp. 1044-51), with some modifications. Cloned mGluR5 was obtained by re-suspending CHO T-REx h-mGluR5 cells (50 μg/well) in 20 mM HEPES, 2 mM MgCl2, 2 mM CaCl2, pH 7.4, that then were incubated in a final volume of 1 ml for 60 min at 25° C. with 4 nM [^3H]MPEP in the absence or presence of competing drugs. Non-specific binding was determined in the presence of […] MPEP. The incubation was stopped by addition of cold Tris buffer pH 7.4 and rapid filtration through 0.2% polyethyleneimine pretreated Filtermat 1204-401 (Perkin Elmer) filters. The filters were then washed with cold buffer and the radioactivity retained on the filters was counted by liquid scintillation spectrometry (Betaplate 1204 BS-Wallac).
(§2) The antagonist potency was determined using the EC80 of the quisqualate used as agonist and the potentiation of mGlu5 activation was determined using the EC20 of the agonist (quisqualate or glutamate). The compounds were applied 10 minutes before the application of the agonist. For binding and calcium assay studies, the compounds were dissolved in DMSO or demineralized water according to their solubility. All the reported doses were those of the corresponding salts or bases.
The inhibition curves of the tested compounds at native and cloned mGluR1 and mGluR5 subtypes were determined by nonlinear regression analysis using software Prism 4.0 (Graphpad, San Diego, Calif.). The IC50 values and pseudo-Hill slope coefficients were estimated by the program. The values for the inhibition constant, Ki, were calculated according to the equation Ki=IC50/(1+[L]/Kd), where [L] is the concentration of radioligand and Kd is the equilibrium dissociation constant of the radioligand-receptor complex (Cheng et al., Biochem. Pharmacol. (1973), Vol. 22, pp. 3099-3108).

[2] = target: T1, human mGlu5 receptor (CHO T-REx h-mGluR5 cells); experiment: Calcium fluorescence measurement, antagonist potency against EC80 of quisqualate; format: cell-based; conditions: agonist quisqualate at EC80; read-out: h.c. mgluR5 Calcium IC50
Source text: as §1
(§3) Cells were seeded into black-walled, clear-bottom, 96-well plates at a density of 80000 cell/well, in RPMI (without Phenol Red, without L-glutamine; Gibco LifeTechnologies, CA) supplemented with 10% dialyzed FBS. Following 18-h incubation with tetracycline, the cells were loaded with […] Ca^2+—sensitive fluorescent dye Fluo-4/AM (Molecular Probes) in Hanks' balanced saline solution (HBSS, Gibco LifeTechnologies, CA) with 20 mM Hepes (Sigma) and 2.5 mM probenecid (Sigma), for 1 h at 37° C. The cells were washed three times with HBSS to remove extracellular dye. Fluorescence signals were measured by using the fluorescence microplate reader Flexstation III (Molecular Devices) at sampling intervals of 1.5 s for 60 s.
as §2

[3] = target: T1, human mGlu5 receptor (CHO T-REx h-mGluR5 cells); experiment: Calcium fluorescence measurement, potentiation of mGlu5 activation at EC20 of quisqualate; format: cell-based; conditions: for Fold Shift 1 microM Quisq. / Fold Inc. Quisq.: agonist quisqualate; for EC50: potentiation, agonist quisqualate at EC20, read-out: EC50 nM Quisq.
Source text: as §1, §3, §2

T1 sequence (P41594 21-1212): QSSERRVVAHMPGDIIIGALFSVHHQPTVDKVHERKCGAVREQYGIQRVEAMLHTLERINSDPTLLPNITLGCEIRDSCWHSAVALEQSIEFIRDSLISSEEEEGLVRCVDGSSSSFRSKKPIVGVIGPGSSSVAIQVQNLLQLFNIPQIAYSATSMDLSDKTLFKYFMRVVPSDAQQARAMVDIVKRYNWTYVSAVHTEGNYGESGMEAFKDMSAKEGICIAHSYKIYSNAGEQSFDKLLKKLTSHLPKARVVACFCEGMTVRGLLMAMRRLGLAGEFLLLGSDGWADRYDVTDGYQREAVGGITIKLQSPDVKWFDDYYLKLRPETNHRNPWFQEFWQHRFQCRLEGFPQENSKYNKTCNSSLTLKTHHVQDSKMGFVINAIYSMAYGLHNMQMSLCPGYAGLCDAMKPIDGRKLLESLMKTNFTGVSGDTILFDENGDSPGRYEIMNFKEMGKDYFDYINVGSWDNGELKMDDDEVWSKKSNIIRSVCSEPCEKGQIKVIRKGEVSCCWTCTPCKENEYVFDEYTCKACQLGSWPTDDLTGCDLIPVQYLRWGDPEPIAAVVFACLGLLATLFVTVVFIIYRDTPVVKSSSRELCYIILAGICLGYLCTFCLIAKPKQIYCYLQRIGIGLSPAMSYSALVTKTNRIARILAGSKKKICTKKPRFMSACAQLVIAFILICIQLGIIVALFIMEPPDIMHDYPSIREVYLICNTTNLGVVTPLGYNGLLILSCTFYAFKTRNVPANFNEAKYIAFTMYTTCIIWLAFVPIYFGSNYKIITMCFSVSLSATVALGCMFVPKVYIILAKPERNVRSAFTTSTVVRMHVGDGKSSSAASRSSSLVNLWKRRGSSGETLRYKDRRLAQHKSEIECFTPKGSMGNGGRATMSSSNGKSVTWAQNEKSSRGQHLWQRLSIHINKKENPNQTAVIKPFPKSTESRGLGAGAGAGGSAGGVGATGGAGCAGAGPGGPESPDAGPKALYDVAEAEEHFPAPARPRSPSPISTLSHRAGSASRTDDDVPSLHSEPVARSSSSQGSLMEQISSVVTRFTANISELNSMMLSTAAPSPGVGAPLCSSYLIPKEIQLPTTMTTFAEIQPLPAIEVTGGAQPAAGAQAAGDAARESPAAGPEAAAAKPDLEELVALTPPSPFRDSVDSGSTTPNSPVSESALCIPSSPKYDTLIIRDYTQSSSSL

IC50 [1]	IC50 [2]	Fold Shift 1 microM Quisq. [3]	Fold Inc. Quisq. [3]	EC50 [3]	SMILES
17 nM	> 1000 nM	–	–	–	Cc1cccc(C#CC2=NOC3C2CCN3C(=O)N2CCCC2)c1 (centres unmarked) [Example 11, [3-[2-(m-tolyl)ethynyl]-3a,4,5,6a-tetrahydropyrrolo[3,2-d]isoxazol-6-yl]-pyrrolidin-1-yl-methanone]
50 nM	> 1000 nM	3.2 fold	2.06 fold	131 nM	Cc1cccc(C#CC2=NOC3C2CCN3C(=O)N2CCOCC2)c1 (centres unmarked) [Example 13, morpholino-[3-[2-(m-tolyl)ethynyl]-3a,4,5,6a-tetrahydropyrrolo[3,2-d]isoxazol-6-yl]methanone]
12.5 nM	> 1000 nM	–	–	–	O=C(N1CCCCC1)N1CCC2C(C#Cc3cccc(Cl)c3)=NOC21 (centres unmarked) [Example 8, [3-[2-(3-chlorophenyl)ethynyl]-3a,4,5,6a-tetrahydropyrrolo[3,2-d]isoxazol-6-yl]-(1-piperidyl)methanone]
15 nM	> 1000 nM	–	–	–	O=C(N1CCCC1)N1CCC2C(C#Cc3cccc(Cl)c3)=NOC21 (centres unmarked) [Example 9, [3-[2-(3-chlorophenyl)ethynyl]-3a,4,5,6a-tetrahydropyrrolo[3,2-d]isoxazol-6-yl]-pyrrolidin-1-yl-methanone]
3.65 nM	> 1000 nM	2.2 fold	3.5 fold	141 nM	Cc1cccc(C#CC2=NOC3C2CCN3C(=O)OC(C)(C)C)c1 (centres unmarked) [Example 10, tert-butyl 3-[2-(m-tolyl)ethynyl]-3a,4,5,6a-tetrahydropyrrolo[3,2-d]isoxazole-6-carboxylate]
22 nM	21.1 nM	–	–	–	CON(C)C(=O)N1CCC2C(C#Cc3cccc(C)c3)=NOC21 (centres unmarked) [Example 15, N-methoxy-N-methyl-3-[2-(m-tolyl)ethynyl]-3a,4,5,6a-tetrahydropyrrolo[3,2-d]isoxazole-6-carboxamide]
3.87 nM	> 1000 nM	1.8 fold	1.96 fold	37.1 nM	CC(C)(C)OC(=O)N1CCC2C(C#Cc3cccc(Cl)c3)=NOC21 (centres unmarked) [Example 1, tert-butyl 3-[2-(3-chlorophenyl)ethynyl]-3a,4,5,6a-tetrahydropyrrolo[3,2-d]isoxazole-6-carboxylate]
81.5 nM	54.8 nM	–	–	–	CCOC(=O)N1CCC2C(C#Cc3cccc(Cl)c3)=NOC21 (centres unmarked) [Example 3, ethyl 3-[2-(3-chlorophenyl)ethynyl]-3a,4,5,6a-tetrahydropyrrolo[3,2-d]isoxazole-6-carboxylate]
59.2 nM	212 nM	–	–	–	CN(C)C(=O)N1CCC2C(C#Cc3cccc(Cl)c3)=NOC21 (centres unmarked) [Example 7, 3-[2-(3-chlorophenyl)ethynyl]-N,N-dimethyl-3a,4,5,6a-tetrahydropyrrolo[3,2-d]isoxazole-6-carboxamide]
29.6 nM	> 1000 nM	–	0 fold	–	O=C(c1ccco1)N1CCC2C(C#Cc3cccc(Cl)c3)=NOC21 (centres unmarked) [Example 2, [3-[2-(3-chlorophenyl)ethynyl]-3a,4,5,6a-tetrahydropyrrolo[3,2-d]isoxazol-6-yl]-(2-furyl)methanone]
14.8 nM	> 1000 nM	–	–	–	CCN(CC)C(=O)N1CCC2C(C#Cc3cccc(C)c3)=NOC21 (centres unmarked) [Example 14, N,N-diethyl-3-[2-(m-tolyl)ethynyl]-3a,4,5,6a-tetrahydropyrrolo[3,2-d]isoxazole-6-carboxamide]
